Measurements published in patent US6605297B2, “Substances having antiobese and visceral fat-reducing functions and utilization thereof” (Janiftec, Inc., priority 1998, dated 2003).

Legend:
[1] = 7-week feeding study in rats: body weight, feed ingested, symptoms; type: in vivo, Sprague-Dawley male rats; settings: Example 3; 0.5% in feed plus 8.5% lard, rats 7 weeks
Description: (§1) After acclimation for 1 week on basic feed (F-2, Funabashi Farms Co., Ltd.) using 7-week-old Sprague-Dawley male rats, 7 rats per group were placed in the following 3 groups so that average body weight of each group would be the same and reared for 7 weeks. Rearing environment was adjusted to a temperature of 22 to 24° C. and humidity of 50 to 60%, with 12 hours of light and dark each (light time: 8:00 to 20:00, dark time: 20:00 to 8:00). Feed was supplied in restricted amounts and body weight was determined each week.
(§2) The components, including proteins, sugars, etc., were the same and the lipids were adjusted to 10% for each group. […]
(§3) After being reared for 7 weeks, the laboratory animals were fasted for 20 hours. […] Then mesenteric fat, perinephric fat, peritesticular fat, and interscapular brown fat were recovered and weighed and the brown fat was submitted to determinations of the amount of UCP. The plasma was obtained from blood by conventional methods and serum triglycerides, cholesterol, and phospholipid concentrations were determined. The amount of UCP was determined by the following method.
With the exception that 8.5% lard was added to 0.5% starting DHA ethyl ester and served as the control group, and 8.5% lard was added to 0.5% coupled DHA ethyl ester and served as the coupled DHA ethyl group, the feed was in accordance with Example 1. […]

[2] = system: mesenteric fat, perinephric fat, peritesticular fat, interscapular brown fat; test: 7-week feeding study in rats: weight of mesenteric, perinephric, peritesticular and interscapular brown fat; type: in vivo, Sprague-Dawley male rats; settings: Example 3; 0.5% in feed plus 8.5% lard, rats 7 weeks
Description: as §1, §2, §3
Then the mesenteric fat, perinephric fat, peritesticular fat, and interscapular brown fat were collected and weight was determined, and the brown fat was submitted to determinations of the amount of UCP.

[3] = system: UCP; test: Amount of UCP in interscapular BAT mitochondria fraction by western blotting; type: in vivo, rat; settings: Example 3; 0.5% in feed, rats 7 weeks; relative value, control group = 100
Description: as §3
Interscapular BAT extracted from rats was homogenized with 200 mM sucrose (comprising 10 mM Tris-HCl at pH of 7.5; 2 mM EDTA), centrifuged for 5 minutes at 3,100 rpm and 4° C. using a centrifugator on a cold table, and the supernatent thereof was further centrifuged for 10 minutes at 12,000 rpm and 4° C. The precipitate thus obtained (mitochondria fraction) was served as the sample.
Polyacrylamide gel electrophoresis was performed with 11% separated gel, and 50 μg sample protein were submitted to analysis from each lane. As the electrophoresis conditions, migration for 10 minutes at 100 V and then for 1 hour at 200 V were adopted. […] After rinsing, the UCP band was detected on X-ray film with a chemiluminescence method detection reagent (Dupont). The darkness of the band on the film was read with a scanner and digitized by a computer. […]

Structure (SMILES): CC/C=C\C/C=C\C/C=C\C/C=C\C/C=C\C/C=C\CCC(=O)OCC [Control group, DHA ethyl ester]
- Body weight [1]: 515.8 ± 29 b g
- Brown fat per body weight [2]: 0.073 ± 0.015%
- Mesenteric fat per body weight [2]: 1.01 ± 0.20 b %
- Total intra-abdominal fat per body weight [2]: 5.29 ± 0.93 b %
- UCP [3]: 100 ± 8
